Test results reported in patent US7183324B2, “2,3,4-substituted cyclopentanones as therapeutic agents” (Allergan, Inc., priority 2004, dated 2007).

Columns and labels:
Beagle dogs [1] = test: Intraocular pressure in dogs (pneumatonometry); format: in vivo; conditions: dog, topical 25 μL drop, Conc. 0.1%, 5 day study
Procedure: (§1) • Intraocular Pressure (IOP) Intraocular pressure studies in dogs involved pneumatonometry performed in conscious, Beagle dogs of both sexes (10–15 kg). The animals remained conscious throughout the study and were gently restrained by hand. Drugs were administered topically to one eye as a 25 μL volume drop, the other eye received 25 μL vehicle (0.1% polysorbate 80:10 mM TRIS) as a control. Proparacaine (0.1%) was used for corneal anesthesia during tonometry. Intraocular pressure was determined just before drug administration and at 2, 4 and 6 hr thereafter on each day of the 5 day study. Drug was administered immediately after the first IOP reading. • An analogous procedure was carried out with cynomolgus monkeys with measurements at 2, 4, 6, and 24 hours after a single dose. • Pupil Diameter • Dog pupil diameter was measured using an optistick (a mm ruler which included half-circle references of standard widths (mm) for reference. Gently restraining the dog by hand, pupil diameter was determined by matching a half-circle to the pupil in normal room light. In dogs with very dark pupils a specialized penlight was used, but only very briefly to avoid pupil constriction. Pupil diameter was measured at the same time as IOP and hyperemia. • Ocular Surface Hyperemia • Ocular surface hyperemia was visually assessed and scored according to a system typically used clinically.

cynomolgus monkeys = test: Intraocular pressure in cynomolgus monkeys; format: in vivo; conditions: monkey, topical single dose, Conc. 0.1%
Procedure: as §1

Beagle dogs [2] = test: Ocular surface hyperemia in dogs; format: in vivo; conditions: dog, topical, Conc. 0.1%; score: trace 0.5, mild 1, moderate 2, severe 3
Procedure: as §1
• Ocular surface hyperemia was evaluated at the same time points as intraocular pressure measurement. It should be noted that untreated dog eyes frequently have a pink/red tone. Thus, values of trace or even mild are not necessarily out of the normal range.

HEP3D = target: T1, HEP3D (Homo sapiens, UniProt P43115); test: Radioligand binding, EP3 receptor; conditions: [3H]PGE2 5 nM
T1 sequence (P43115 1-374 isoform P43115-4): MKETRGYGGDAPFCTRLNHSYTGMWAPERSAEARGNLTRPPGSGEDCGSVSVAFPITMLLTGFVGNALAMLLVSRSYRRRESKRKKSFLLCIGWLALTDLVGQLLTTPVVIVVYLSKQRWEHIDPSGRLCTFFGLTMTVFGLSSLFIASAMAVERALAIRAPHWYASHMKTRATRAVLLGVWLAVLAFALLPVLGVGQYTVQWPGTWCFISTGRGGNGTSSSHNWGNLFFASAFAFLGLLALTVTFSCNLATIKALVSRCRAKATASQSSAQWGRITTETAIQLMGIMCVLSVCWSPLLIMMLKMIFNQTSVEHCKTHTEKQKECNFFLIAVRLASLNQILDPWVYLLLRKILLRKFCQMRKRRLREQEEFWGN
Procedure: (§2) HEK-293 cells stably expressing the human or feline FP receptor, or EP1, EP2, or EP4 receptors were washed with TME buffer, scraped from the bottom of the flasks, and homogenized for 30 sec using a Brinkman PT 10/35 polytron. TME buffer was added to achieve a final 40 ml volume in the centrifuge tubes (the composition of TME is 100 mM TRIS base, 20 mM MgCl2, […]; 10N HCl is added to achieve a pH of 7.4).
(§3) The cell homogenate was centrifuged at 19000 r.p.m. for 20 min at 4° C. using a Beckman Ti-60 rotor. The resultant pellet was resuspended in TME buffer to give a final 1 mg/ml protein concentration, as determined by Biorad assay. Radioligand binding competition assays vs. [^3H-]17-phenyl PGF2α (5 nM) were performed in a 100 μl volume for 60 min. Binding reactions were started by adding plasma membrane fraction. The reaction was terminated by the addition of 4 ml ice-cold TRIS-HCl buffer and rapid filtration through glass fiber GF/B filters using a Brandel cell harvester. The filters were washed 3 times with ice-cold buffer and oven dried for one hour. Non-specific binding was determined with 10 uM unlabeled 17-phenyl PGF2α.
(§4) [^3H-] PGE2 (5 nM; specific activity 180 Ci mmol) was used as the radioligand for EP receptors. Binding studies employing EP1, EP2, EP3, EP4 were performed in duplicate in at least three separate experiments. A 200 μl assay volume was used. Incubations were for 60 min at 25° C. and were terminated by the addition of 4 ml of ice-cold 50 mM TRIS-HCl, followed by rapid filtration through Whatman GF/B filters and three additional 4 ml washes in a cell harvester (Brandel). Non-specific binding determined with 10^−5M of unlabeled PGE2.

HEP4 = target: T2, HEP4 (Homo sapiens, UniProt P35408); test: Radioligand binding, EP4 receptor; conditions: [3H]PGE2 5 nM, HEK-293 membranes
T2 construct: expressed in transfected cells; host or cells: HEK-293
Procedure: as §2, §3, §4

hEP4/Gqs5 = target: T3, hEP4/Gqs5 (Homo sapiens, UniProt P35408); test: FLIPR calcium signal, hEP4/Gqs5; format: cell-based; conditions: HEK-293 (EBNA) cells, read-out: FUNCTIONAL EC50 HEP4
T3 construct: expressed in transfected cells; host or cells: HEK-293 (EBNA)
Procedure: (§5) HEK-293 (EBNA) cells, stably expressing one type or subtype of recombinant human prostaglandin receptors (prostaglandin receptors expressed: hDP/Gqs5; hEP1; hEP2/Gqs5; hEP3A/Gqi5; hEP4/Gqs5; hFP; hIP; hTP), were cultured in 100 mm culture dishes in high-glucose DMEM medium containing 10% fetal bovine serum, 2 mM 1-glutamine, 250 μg/ml geneticin (G418) and 200 μg/ml hygromycin B as selection markers, and 100 units/ml penicillin G, 100 μg/ml streptomycin and 0.25 μg/ml amphotericin B. • (b) Calcium Signal Studies on the FLIPR™
Cells were seeded at a density of 5×10^4 cells per well in Biocoat® Poly-D-lysine-coated black-wall, clear-bottom 96-well plates (Becton-Dickinson) and allowed to attach overnight in an incubator at 37° C. Cells were then washed two times with HBSS-HEPES buffer (Hanks Balanced Salt Solution without bicarbonate and phenol red, 20 mM HEPES, pH 7.4) using a Denley Cellwash plate washer (Labsystems). After 45 minutes of dye-loading in the dark, using the calcium-sensitive dye Fluo-4 AM at a final concentration of 2 μM, plates were washed four times with HBSS-HEPES buffer to remove excess dye leaving 100 μl in each well. Plates were re-equilibrated to 37° C. for a few minutes.
Cells were excited with an Argon laser at 488 nm, and emission was measured through a 510–570 nm bandwidth emission filter (FLIPR™, Molecular Devices, Sunnyvale, Calif.). Drug solution was added in a 50 μl volume to each well to give the desired final concentration. The peak increase in fluorescence intensity was recorded for each well. On each plate, four wells each served as negative (HBSS-HEPES buffer) and positive controls (standard agonists: BW245C (hDP); PGE2 (hEP1; hEP2/Gqs5; hEP3A/Gqi5; hEP4/Gqs5); PGF2α (hFP); carbacyclin (hIP); U46619 (hTP), depending on receptor). The peak fluorescence change in each drug-containing well was then expressed relative to the controls.
Compounds were tested in a high-throughput (HTS) or concentration-response (CoRe) format. In the HTS format, forty-four compounds per plate were examined in duplicates at a concentration of 10^−5 M. To generate concentration-response curves, four compounds per plate were tested in duplicates in a concentration range between 10^−5 and 10^−11 M. The duplicate values were averaged. In either, HTS or CoRe format each compound was tested on at least 3 separate plates using cells from different passages to give an n≧3.

hIP = target: T4, hIP (Homo sapiens, UniProt P43119); test: FLIPR calcium signal, hIP; format: cell-based; conditions: HEK-293 (EBNA) cells, read-out: FUNCTIONAL EC50 HIP
T4 construct: expressed in transfected cells; host or cells: HEK-293 (EBNA)
Procedure: as §5
Cells were seeded at a density of 5×10^4 cells per well in Biocoat® Poly-D-lysine-coated black-wall, clear-bottom 96-well plates (Becton-Dickinson) and allowed to attach overnight in an incubator at 37° C. Cells were then washed two times with HBSS-HEPES buffer (Hanks Balanced Salt Solution without bicarbonate and phenol red, 20 mM HEPES, pH 7.4) using a Denley Cellwash plate washer (Labsystems). […]
Cells were excited with an Argon laser at 488 nm, and emission was measured through a 510–570 nm bandwidth emission filter (FLIPR™, Molecular Devices, Sunnyvale, Calif.). […] The peak increase in fluorescence intensity was recorded for each well. […] The peak fluorescence change in each drug-containing well was then expressed relative to the controls. […]

T3 sequence (P35408 whole entry): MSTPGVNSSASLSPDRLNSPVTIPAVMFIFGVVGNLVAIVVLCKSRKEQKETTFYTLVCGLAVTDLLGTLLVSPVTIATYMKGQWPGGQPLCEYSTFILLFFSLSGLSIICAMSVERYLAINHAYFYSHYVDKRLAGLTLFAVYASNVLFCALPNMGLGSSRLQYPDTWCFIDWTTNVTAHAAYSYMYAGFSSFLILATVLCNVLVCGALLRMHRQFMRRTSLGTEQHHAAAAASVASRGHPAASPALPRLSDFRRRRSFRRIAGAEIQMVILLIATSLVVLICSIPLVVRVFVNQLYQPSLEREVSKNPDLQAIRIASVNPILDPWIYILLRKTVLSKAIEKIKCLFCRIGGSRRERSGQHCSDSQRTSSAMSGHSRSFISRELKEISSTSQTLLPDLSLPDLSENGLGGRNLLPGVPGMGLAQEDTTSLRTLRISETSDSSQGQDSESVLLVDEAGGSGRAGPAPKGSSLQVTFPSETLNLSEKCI
T2 sequence (P35408 whole entry): as above
T4 sequence (P43119 whole entry): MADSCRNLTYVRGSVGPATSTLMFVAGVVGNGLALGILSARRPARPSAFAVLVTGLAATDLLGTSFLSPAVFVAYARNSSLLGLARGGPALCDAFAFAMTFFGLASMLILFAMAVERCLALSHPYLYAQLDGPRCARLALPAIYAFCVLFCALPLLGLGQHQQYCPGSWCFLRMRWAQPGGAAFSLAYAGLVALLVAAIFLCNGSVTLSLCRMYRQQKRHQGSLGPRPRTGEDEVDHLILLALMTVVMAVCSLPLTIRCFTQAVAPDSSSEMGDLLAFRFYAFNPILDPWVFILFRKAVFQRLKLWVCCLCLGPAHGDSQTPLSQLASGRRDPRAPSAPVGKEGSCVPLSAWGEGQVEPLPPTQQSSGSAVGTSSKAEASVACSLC

Row | EC50 (hIP) [nM] | Structure (SMILES) | Max. ΔIOP (Beagle dogs [1]) [mm Hg] | Max. ΔIOP (cynomolgus monkeys) [mm Hg] | Max hyperemia (Beagle dogs [2]) | IC50 (HEP3D) [nM] | IC50 (HEP4) [nM] | EC50 (hEP4/Gqs5) [nM]
1 |  | O=C(O)CSCCCS[C@H]1C(=O)C[C@@H](CO)[C@@H]1/C=C/C(O)Cc1ccccc1 (single isomer, unassigned) [Compound 151] | −4.0 | −2.9 | 1.6 | > 10000 | 53 | 59
2 | > 10000 | COC(=O)CSCCCS[C@H]1C(=O)C[C@@H](CO)[C@@H]1/C=C/C(O)CCc1ccc2ccccc2c1 (single isomer, unassigned) [drawing 39] |  |  |  |  | 140 | 1860
